Data: the NIST ThermoML archive (doi:10.1016/j.jct.2005.10.001)
Numbers after ± are expanded uncertainties.

Assays:
[1] = refractive index (Na D-line) (dimensionless); conditions: 293.15 K; 101.33 kPa; Liquid; Standard Abbe refractometry
[2] = Liquid; for mass density: 293.15 K, 101.33 kPa, Vibrating tube method

CC(C)=O [acetone]
refractive index [1]: 1.359 ± 0.0004
mass density [2]: 784.5 ± 0.2 kg/m3
vapor or sublimation pressure ([2]; 317.58 K): 66.66 ± 1.6 kPa
vapor or sublimation pressure ([2]; 322.68 K): 79.99 ± 2.1 kPa
vapor or sublimation pressure ([2]; 323.15 K): 81.39 ± 0.82 kPa
vapor or sublimation pressure ([2]; 324.94 K): 86.66 ± 2.1 kPa
vapor or sublimation pressure ([2]; 328.98 K): 99.99 ± 2.6 kPa

C=C(C)OCC [2-ethoxy-1-propene]
refractive index [1]: 1.3913 ± 0.0004
mass density [2]: 771.2 ± 0.2 kg/m3
vapor or sublimation pressure ([2]; 320.98 K, Ebulliometric method (Recirculating still)): 62.74 ± 0.8 kPa
vapor or sublimation pressure ([2]; 322.13 K, Ebulliometric method (Recirculating still)): 65.19 ± 0.9 kPa
vapor or sublimation pressure ([2]; 322.7 K, Ebulliometric method (Recirculating still)): 66.66 ± 1.5 kPa
vapor or sublimation pressure ([2]; 323.15 K, Ebulliometric method (Recirculating still)): 67.84 ± 0.7 kPa
vapor or sublimation pressure ([2]; 323.47 K, Ebulliometric method (Recirculating still)): 68.4 ± 0.9 kPa
vapor or sublimation pressure ([2]; 324.5 K, Ebulliometric method (Recirculating still)): 70.65 ± 0.9 kPa
vapor or sublimation pressure ([2]; 325.43 K, Ebulliometric method (Recirculating still)): 72.69 ± 1 kPa
vapor or sublimation pressure ([2]; 326.52 K, Ebulliometric method (Recirculating still)): 75.47 ± 1 kPa
vapor or sublimation pressure ([2]; 327.43 K, Ebulliometric method (Recirculating still)): 77.89 ± 1 kPa
vapor or sublimation pressure ([2]; 327.69 K, Ebulliometric method (Recirculating still)): 79.99 ± 2.1 kPa
vapor or sublimation pressure ([2]; 328.26 K, Ebulliometric method (Recirculating still)): 80.16 ± 1.1 kPa
vapor or sublimation pressure ([2]; 329.39 K, Ebulliometric method (Recirculating still)): 83.21 ± 1.1 kPa
vapor or sublimation pressure ([2]; 329.89 K, Ebulliometric method (Recirculating still)): 85.35 ± 1.1 kPa
vapor or sublimation pressure ([2]; 329.96 K, Ebulliometric method (Recirculating still)): 86.66 ± 2.3 kPa
vapor or sublimation pressure ([2]; 331.07 K, Ebulliometric method (Recirculating still)): 88.17 ± 1.2 kPa
vapor or sublimation pressure ([2]; 331.1 K, Ebulliometric method (Recirculating still)): 89.99 ± 2.5 kPa
vapor or sublimation pressure ([2]; 331.48 K, Ebulliometric method (Recirculating still)): 90.62 ± 1.2 kPa
vapor or sublimation pressure ([2]; 332.88 K, Ebulliometric method (Recirculating still)): 93.41 ± 1.2 kPa
vapor or sublimation pressure ([2]; 333.15 K, Ebulliometric method (Recirculating still)): 95.98 ± 1 kPa
vapor or sublimation pressure ([2]; 333.68 K, Ebulliometric method (Recirculating still)): 96.12 ± 1.3 kPa
vapor or sublimation pressure ([2]; 334.46 K, Ebulliometric method (Recirculating still)): 98.47 ± 1.8 kPa
vapor or sublimation pressure ([2]; 334.57 K, Ebulliometric method (Recirculating still)): 99.82 ± 1.8 kPa
vapor or sublimation pressure ([2]; 334.67 K, Ebulliometric method (Recirculating still)): 99.99 ± 3.1 kPa

CCC(C)=O [butanone]
refractive index [1]: 1.3765 ± 0.0004
mass density [2]: 799.8 ± 0.2 kg/m3
vapor or sublimation pressure ([2]; 333.15 K): 51.89 ± 0.59 kPa
vapor or sublimation pressure ([2]; 340.17 K): 66.66 ± 1.6 kPa
vapor or sublimation pressure ([2]; 345.51 K): 79.99 ± 2.2 kPa
vapor or sublimation pressure ([2]; 349.12 K): 89.99 ± 2.4 kPa
vapor or sublimation pressure ([2]; 352.3 K): 99.99 ± 2.8 kPa
